Data published in patent US8247211B2, “Glycopeptide antibiotics” (American Cyanamid Company, priority 2001, dated 2012).
In brackets after ≈: the same amount, converted by molar mass.

Experiments:
Test in all cases: In vitro antibacterial evaluation: minimum inhibitory concentration (MIC), broth dilution method
Format in all cases: cell-based
[1] = tested on: Enterococcus sp.; settings: broth dilution, 18 hours at 35° C.
Procedure, shortened: (§1)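 Using Muller-Hinton II […] and an inoculum of 5×10^5 CFU/mL, antibiotic dilutions from 64 down to 0.06 μg/mL were tested following NCCLS M7-A2. The MIC is the lowest concentration inhibiting growth, including in methicillin-, penicillin- or vancomycin-resistant clinical isolates.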

[2] = tested on: Staphylococcus sp.; settings: strain SMITH GC 4543; broth dilution, 18 hours at 35° C.
Procedure, shortened: as §1

[3] = tested on: Streptococcus sp.; settings: broth dilution, 18 hours at 35° C.
Procedure, shortened: as §1

[4] = tested on: Escherichia coli; settings: broth dilution, 18 hours at 35° C.
[5] = Enterococcus faecalis (ATCC 29212)
[6] = Enterococcus faecalis (GC 2242)
[7] = Enterococcus faecalis (GC 2691)
[8] = Enterococcus faecalis (GC 3059)
[9] = Enterococcus faecalis (GC 4552)
[10] = Enterococcus faecalis (GC 4553)
[11] = Enterococcus faecalis (GC 4554)
[12] = Enterococcus faecalis (GC 6189)
[13] = Streptococcus agalactiae (GC 4564)
[14] = Streptococcus pneumoniae (ATCC 6301)
[15] = Streptococcus pneumoniae (GC 1894)
[16] = Streptococcus pneumoniae (GC 4565)
[17] = Streptococcus pyogenes (GC 4563)

| MIC Enterococcus avium (GC 4558) ([1]; Enterococcus avium (GC 4558)) | MIC Enterococcus faecalis (ATCC 29212) [1, 5] | MIC Enterococcus faecalis (GC 2242) [1, 6] | MIC Enterococcus faecalis (GC 2691) [1, 7] | MIC Enterococcus faecalis (GC 3059) [1, 8] | MIC Enterococcus faecalis (GC 4552) [1, 9] | MIC Enterococcus faecalis (GC 4553) [1, 10] | MIC Enterococcus faecium (GC 4557) ([1]; Enterococcus faecium (GC 4557)) | MIC Enterococcus faecalis (GC 4553) [1] | MIC Enterococcus faecium (GC 4557) [1] | MIC Staphylococcus aureus-SMITH (GC 4543) [2] | MIC Streptococcus agalactiae (GC 4564) [3, 13] | MIC Streptococcus pneumoniae (GC 1894) [3, 15] | MIC Streptococcus pyogenes (GC 4563) [3, 17] | MIC Streptococcus agalactiae (GC 4564) [3] | MIC Streptococcus pneumoniae (GC 1894) [3] | MIC Streptococcus pyogenes (GC 4563) [3] | MIC Escherichia coli (ATCC 25922) [4] | MIC Escherichia coli (GC 4559) [4] | MIC Escherichia coli (GC 4560) [4] | Compound | also measured |
| --- | --- | --- | --- | --- | --- | --- | --- | --- | --- | --- | --- | --- | --- | --- | --- | --- | --- | --- | --- | --- | --- |
| 64 mg/L (≈ 62.3 µM) | >64 mg/L | 64 mg/L (≈ 62.3 µM) | >64 mg/L | >64 mg/L | >64 mg/L | 64 mg/L (≈ 62.3 µM) | 64 mg/L (≈ 62.3 µM) | 64 mg/L (≈ 62.3 µM) | 64 mg/L (≈ 62.3 µM) | 64 mg/L (≈ 62.3 µM) | 16 mg/L (≈ 15.6 µM) | 2 mg/L (≈ 1.95 µM) | 8 mg/L (≈ 7.78 µM) | 16 mg/L (≈ 15.6 µM) | 2 mg/L (≈ 1.95 µM) | 8 mg/L (≈ 7.78 µM) | >64 mg/L | >64 mg/L | 32 mg/L (≈ 31.1 µM) | CC(=O)Nc1cc(CC2NC(=O)C(C(C)c3ccccc3)NC(=O)CNC(=O)C(CO)NC(=O)C(C(O)C3CNC(=N)N3C3OC(CO)C(O)C(O)C3O)NC(=O)C(C(O)C3CNC(=N)N3)NC2=O)ccc1O (stereo not drawn) [Example 13, Cyclo[glycyl-β-methylphenylalanyl-3-acetamidotyrosyl-3-(2-iminoimidazolidin-4-yl)seryl-3-(3-hexopyranosyl-2-iminoimidazolidin-4-yl)serylseryl]] | MIC Enterococcus faecalis (GC 4554) [1, 11]: >64 mg/L; MIC Enterococcus faecalis (GC 6189) [1, 12]: >64 mg/L; MIC Enterococcus faecium (GC 2243) ([1]; Enterococcus faecium (GC 2243)): 64 mg/L (≈ 62.3 µM); MIC Enterococcus faecium (GC 4556) ([1]; Enterococcus faecium (GC 4556)): 64 mg/L (≈ 62.3 µM); MIC Enterococcus avium (GC 4558) [1]: 64 mg/L (≈ 62.3 µM); MIC Enterococcus faecalis (ATCC 29212) [1]: >64 mg/L; MIC Enterococcus faecalis (GC 2242) [1]: 64 mg/L (≈ 62.3 µM); MIC Enterococcus faecalis (GC 2691) [1]: >64 mg/L; MIC Enterococcus faecalis (GC 3059) [1]: >64 mg/L; MIC Enterococcus faecalis (GC 4552) [1]: >64 mg/L; MIC Enterococcus faecalis (GC 4554) [1]: >64 mg/L; MIC Enterococcus faecalis (GC 6189) [1]: >64 mg/L; MIC Enterococcus faecium (GC 2243) [1]: 64 mg/L (≈ 62.3 µM); MIC Enterococcus faecium (GC 4556) [1]: 64 mg/L (≈ 62.3 µM); MIC Streptococcus pneumoniae (ATCC 6301) [3, 14]: 4 mg/L (≈ 3.89 µM); MIC Streptococcus pneumoniae (GC 4565) [3, 16]: 4 mg/L (≈ 3.89 µM); MIC Streptococcus pneumoniae (ATCC 6301) [3]: 4 mg/L (≈ 3.89 µM); MIC Streptococcus pneumoniae (GC 4565) [3]: 4 mg/L (≈ 3.89 µM) |
| – | – | – | – | – | – | 64 mg/L (≈ 58.3 µM) | 16 mg/L (≈ 14.6 µM) | 64 mg/L (≈ 58.3 µM) | 16 mg/L (≈ 14.6 µM) | 64 mg/L (≈ 58.3 µM) | 64 mg/L (≈ 58.3 µM) | 64 mg/L (≈ 58.3 µM) | 16 mg/L (≈ 14.6 µM) | 64 mg/L (≈ 58.3 µM) | 64 mg/L (≈ 58.3 µM) | 16 mg/L (≈ 14.6 µM) | 32 mg/L (≈ 29.1 µM) | 32 mg/L (≈ 29.1 µM) | 8 mg/L (≈ 7.28 µM) | CCCCCCC(=O)Nc1cc(CC2NC(=O)C(C(C)c3ccccc3)NC(=O)CNC(=O)C(CO)NC(=O)C(C(O)C3CNC(=N)N3C3OC(CO)C(O)C(O)C3O)NC(=O)C(C(O)C3CNC(=N)N3)NC2=O)ccc1O (stereo not drawn) [Example 16, Cyclo[glycyl-β-methylphenylalanyl-3-(heptanamido)tyrosyl-3-(2-iminoimidazolidin-4-yl)seryl-3-(3-hexopyranosyl-2-iminoimidazolidin-4-yl)serylseryl]] | – |
| 64 mg/L (≈ 58.7 µM) | >64 mg/L | >64 mg/L | >64 mg/L | >64 mg/L | >64 mg/L | >64 mg/L | 64 mg/L (≈ 58.7 µM) | >64 mg/L | 64 mg/L (≈ 58.7 µM) | >64 mg/L | >64 mg/L | 64 mg/L (≈ 58.7 µM) | >64 mg/L | >64 mg/L | 64 mg/L (≈ 58.7 µM) | >64 mg/L | 64 mg/L (≈ 58.7 µM) | 32 mg/L (≈ 29.4 µM) | 16 mg/L (≈ 14.7 µM) | CC(c1ccccc1)C1NC(=O)CNC(=O)C(CO)NC(=O)C(C(O)C2CNC(=N)N2C2OC(CO)C(O)C(O)C2O)NC(=O)C(C(O)C2CNC(=N)N2)NC(=O)C(Cc2ccc(O)c(NC(=O)c3ccccc3)c2)NC1=O (stereo not drawn) [Example 17, Cyclo[glycyl-β-methylphenylalanyl-3-(benzamido)tyrosyl-3-(2-iminoimidazolidin-4-yl)seryl-3-(3-hexopyranosyl-2-iminoimidazolidin-4-yl)serylseryl]] | MIC Enterococcus faecalis (GC 4554) [1, 11]: >64 mg/L; MIC Enterococcus faecalis (GC 6189) [1, 12]: >64 mg/L; MIC Enterococcus faecium (GC 2243) ([1]; Enterococcus faecium (GC 2243)): >64 mg/L; MIC Enterococcus faecium (GC 4556) ([1]; Enterococcus faecium (GC 4556)): 64 mg/L (≈ 58.7 µM); MIC Enterococcus avium (GC 4558) [1]: 64 mg/L (≈ 58.7 µM); MIC Enterococcus faecalis (ATCC 29212) [1]: >64 mg/L; MIC Enterococcus faecalis (GC 2242) [1]: >64 mg/L; MIC Enterococcus faecalis (GC 2691) [1]: >64 mg/L; MIC Enterococcus faecalis (GC 3059) [1]: >64 mg/L; MIC Enterococcus faecalis (GC 4552) [1]: >64 mg/L; MIC Enterococcus faecalis (GC 4554) [1]: >64 mg/L; MIC Enterococcus faecalis (GC 6189) [1]: >64 mg/L; MIC Enterococcus faecium (GC 2243) [1]: >64 mg/L; MIC Enterococcus faecium (GC 4556) [1]: 64 mg/L (≈ 58.7 µM); MIC Streptococcus pneumoniae (ATCC 6301) [3, 14]: >64 mg/L; MIC Streptococcus pneumoniae (GC 4565) [3, 16]: >64 mg/L; MIC Streptococcus pneumoniae (ATCC 6301) [3]: >64 mg/L; MIC Streptococcus pneumoniae (GC 4565) [3]: >64 mg/L |
| – | – | – | – | – | – | – | 64 mg/L (≈ 63.1 µM) | – | 64 mg/L (≈ 63.1 µM) | – | – | 64 mg/L (≈ 63.1 µM) | – | – | 64 mg/L (≈ 63.1 µM) | – | 64 mg/L (≈ 63.1 µM) | 32 mg/L (≈ 31.6 µM) | 16 mg/L (≈ 15.8 µM) | CC(c1ccccc1)C1NC(=O)CNC(=O)C(CO)NC(=O)C(C(O)C2CNC(=N)N2C2OC(CO)C(O)C(O)C2O)NC(=O)C(C(O)C2CNC(=N)N2)NC(=O)C(Cc2ccc(O)c(NC=O)c2)NC1=O (stereo not drawn) [Example 18, Cyclo[glycyl-β-methylphenylalanyl-3-formamidotyrosyl-3-(2-iminoimidazolidin-4-yl)seryl-3-(3-hexopyranosyl-2-iminoimidazolidin-4-yl)serylseryl]] | – |
